Measured values published in US12582638B2, “Pharmaceutical composition for treating cancer, containing mTOR-signaling inhibitor as active ingredient” (KOREA ADVANCED INSTITUTE OF SCIENCE AND TECHNOLOGY, priority 2020, dated 2026).
pIC50: −log10 of the molar value.

Experiments:
Experiment in all cases: Cell viability, CellTiterGlo, 72 hours
Format in all cases: cell-based
[1] = tested on: MOLT-4; details: Homo sapiens, MOLT-4 cells, Blood
Description: (§1) In addition to the colorectal cells, 120 cancer cell lines treated with various concentrations of lomitapide were assayed for viability. To analyze cell viability, the cells were incubated with lomitapide at 37° C. for 72 hours in a 5% or 10% CO2 atmosphere and then equilibrated at room temperature for 1 hour, followed by addition of CellTiterGlo reagent (Promega). One hour later, luminescence was measured to calculate cell viability (%). The 120 cell lines were purchased from ATCC (American Type Culture Collection, Virginia, USA).

[2] = tested on: HCC827; details: Homo sapiens, HCC827 cells, Lung
Description: as §1

[3] = tested on: HCC 1569; details: Homo sapiens, HCC1569, HCC 1569 cells, Breast
Description: as §1

[4] = tested on: U118MG; details: Homo sapiens, U-118-MG, U118MG cells, Brain
Description: as §1

[5] = tested on: DU-145; details: Homo sapiens, DU-145 cells, Prostate
Description: as §1

[6] = tested on: A498; details: Homo sapiens, A498 cells, Kidney
Description: as §1

[7] = tested on: JIMT-1; details: Homo sapiens, JIMT-1 cells, Breast
Description: as §1

[8] = tested on: U-937; details: Homo sapiens, U-937 cells, Blood
Description: as §1

[9] = tested on: NCI-H292; details: Homo sapiens, NCI-H292 cells, Lung
Description: as §1

[10] = tested on: H4; details: H4 cells, Brain
Description: as §1

[11] = tested on: T84; details: Homo sapiens, T84 cells, Colon
Description: as §1

[12] = tested on: NCI-H1437; details: Homo sapiens, NCI-H1437 cells, Lung
Description: as §1

[13] = tested on: SW620; details: Homo sapiens, SW-620, SW620 cells, Colon
Description: as §1

[14] = tested on: H2228; details: Homo sapiens, NCI-H2228, H2228 cells, Lung
Description: as §1

[15] = tested on: Caki-2; details: Homo sapiens, Caki-2 cells, Kidney
Description: as §1

[16] = tested on: HCC38; details: Homo sapiens, HCC38 cells, Breast
Description: as §1

[17] = tested on: Saos-2 EC; details: Homo sapiens, Saos-2 EC cells, Bone
Description: as §1

[18] = tested on: BT-20; details: Homo sapiens, BT-20 cells, Breast
Description: as §1

[19] = tested on: MCAS; details: MCAS cells, Ovary
Description: as §1

[20] = tested on: NCI-H1573; details: Homo sapiens, NCI-H1573 cells, Lung
Description: as §1

[21] = tested on: OVCAR-3; details: Homo sapiens, OVCAR-3 cells, Ovary
Description: as §1

[22] = tested on: KMS-12-BM; details: Homo sapiens, KMS-12-BM cells, Blood
Description: as §1

[23] = tested on: PANC-1; details: Homo sapiens, PANC-1 cells, Pancreas
Description: as §1

[24] = tested on: H1299; details: Homo sapiens, NCI-H1299, H1299 cells, Lung
Description: as §1

[25] = tested on: NCI-H2009; details: Homo sapiens, NCI-H2009 cells, Lung
Description: as §1

[26] = tested on: NCI-H1581; details: Homo sapiens, NCI-H1581 cells, Lung
Description: as §1

[27] = tested on: SK.BR-3; details: Homo sapiens, SK.BR-3 cells, Breast
Description: as §1

[28] = tested on: SNU840; details: SNU-840, SNU840 cells, Ovary
Description: as §1

[29] = tested on: SCLC-21H; details: Homo sapiens, SCLC-21H cells, Lung
Description: as §1

[30] = tested on: HCT116; details: Homo sapiens, HCT-116, HCT116 cells, Colon
Description: as §1

[31] = tested on: SK-N-SH; details: Homo sapiens, SK-N-SH cells, Brain
Description: as §1

[32] = tested on: OCI-AML3; details: Homo sapiens, OCI-AML-3, OCI-AML3 cells, Blood
Description: as §1

[33] = tested on: OCI-LY19; details: Homo sapiens, OCI-LY19 cells, Blood
Description: as §1

[34] = tested on: Kato III; details: Homo sapiens, Kato III cells, Stomach
Description: as §1

[35] = tested on: MOLM-13; details: Homo sapiens, MOLM-13 cells, Blood
Description: as §1

[36] = tested on: NCI-H2110; details: NCI-H2110 cells, Lung
Description: as §1

[37] = tested on: LN229; details: Homo sapiens, LN-229, LN229 cells, Brain
Description: as §1

[38] = tested on: SK-MEL-3; details: Homo sapiens, SK-MEL3, SK-MEL-3 cells, Skin
Description: as §1

[39] = tested on: EPLC-272H; details: Homo sapiens, EPLC-272H cells, Lung
Description: as §1

In the case of `O=C(NC1CCN(CCCCC2(C(=O)NCC(F)(F)F)c3ccccc3-c3ccccc32)CC1)c1ccccc1-c1ccc(C(F)(F)F)cc1` [lomitapide, N-(2,2,2-trifluoroethyl)-9-[4-[4-[[[4′-(trifluoromethyl)[1,1′-biphenyl]2-yl]carbonyl]amino]-1-piperidinyl]butyl]-9H-fluoren-9-carboxamide], the pIC50 [1] was 5.44, the pIC50 [2] was 5.39 and the pIC50 [3] was 5.54. It also gave a pIC50 [4] of 5.60, a pIC50 [5] of 5.30 and a pIC50 [6] of 5.54. For the same compound, the pIC50 [7] was 5.48, the pIC50 [8] was 5.64 and the pIC50 [9] was 5.52. It also gave a pIC50 [10] of 5.34, a pIC50 [11] of 5.49 and a pIC50 [12] of 5.51. The pIC50 [13] was 5.44, the pIC50 [14] was 5.28 and the pIC50 [15] was 5.55. The pIC50 [16] was 5.22, the pIC50 [17] was 5.44 and the pIC50 [18] was 5.30. The pIC50 [19] was 5.35, the pIC50 [20] was 5.33 and the pIC50 [21] was 5.28. It also gave a pIC50 [22] of 5.46, a pIC50 [23] of 5.35 and a pIC50 [24] of 5.32. The pIC50 [25] was 5.48, the pIC50 [26] was 5.43 and the pIC50 [27] was 5.41. It also gave a pIC50 [28] of 5.64, a pIC50 [29] of 5.52 and a pIC50 [30] of 5.30. It also gave a pIC50 [31] of 5.49, a pIC50 [32] of 5.68 and a pIC50 [33] of 5.55. For the same compound, the pIC50 [34] was 5.27, the pIC50 [35] was 5.20 and the pIC50 [36] was 5.48. It also gave a pIC50 [37] of 5.57, a pIC50 [38] of 5.80 and a pIC50 [39] of 5.51.
